Experimental data: patent publication US20250296971A1, “GASTRIC INHIBITORY PEPTIDE RECEPTOR LIGANDS” (priority 2021, published 2025)
Read-outs that look alike come from different tables or passages of the source. *1 amine or outer side, *2 acyl side, *3 side chain or, on linkers, in order; H or OH if unused. Where a SMILES comes first, the peptide text is derived from it. Bridges are numbered along the chain shown (N, C = ends). [ ]: non-standard residue; d: D form. The star is where a group is joined. X2 = O=C(O)CN1CCN(CC(=O)O)CCN(CC(=O)N[C@@H](CCC(=O)NC[C@H](O)[C@@H](O)[C@H](O)[C@H](O)CO)C(=O)*)CCN(CC(=O)O)CC1; X5 = NC(=O)[C@H](CCCCNC(=O)CN1CCN(CC(=O)O)CCN(CC(=O)O)CCN(CC(=O)O)CC1)NC(=O)CCC(=O)NCCCOCCOCCOCCCN*; X19 = O=C(O)CN1CCN(CC(=O)O)CCN(CC(=O)N2CCN(Cc3cc(C[*:1])cc(C[*:2])c3)CC2)CCN(CC(=O)O)CC1; NH(1-deoxy-D-glucityl) = OC[C@@H](O)[C@@H](O)[C@H](O)[C@@H](O)CN*; DOTA = O=C(O)CN1CCN(CC(=O)O)CCN(CC(=O)*)CCN(CC(=O)O)CC1; Trp(5-Cl) = N[C@@H](Cc1c[nH]c2ccc(Cl)cc12)C(=O)O; Trp(6-Cl) = N[C@@H](Cc1c[nH]c2cc(Cl)ccc12)C(=O)O; Pyridine(2,6-diCH2) = c1cc(C[*:1])nc(C[*:2])c1; Pro(4R-NH2) = N[C@H]1CN[C@H](C(=O)O)C1; mXylylene = c1cc(C[*:1])cc(C[*:2])c1; Glutaryl = O=C(CCCC(=O)[*:2])[*:1]; Hyp = O=C(O)[C@@H]1C[C@@H](O)CN1; X1 = O=C(CN1CCC(N[*:1])CC1)[*:2]; Suc = O=C(CCC(=O)[*:2])[*:1]; X28 = O=C(CCc1ccc2ccccc2c1)*; Api = NC1(C(=O)O)CCNCC1; Thp = NC1(C(=O)O)CCOCC1; Aib = CC(C)(N)C(=O)O

Target: T1, GIPR (CHO-K1-hGIPR cells) (Homo sapiens, UniProt P48546)
T1 construct: host or cells: CHO-K1
T1 sequence (P48546 22-466): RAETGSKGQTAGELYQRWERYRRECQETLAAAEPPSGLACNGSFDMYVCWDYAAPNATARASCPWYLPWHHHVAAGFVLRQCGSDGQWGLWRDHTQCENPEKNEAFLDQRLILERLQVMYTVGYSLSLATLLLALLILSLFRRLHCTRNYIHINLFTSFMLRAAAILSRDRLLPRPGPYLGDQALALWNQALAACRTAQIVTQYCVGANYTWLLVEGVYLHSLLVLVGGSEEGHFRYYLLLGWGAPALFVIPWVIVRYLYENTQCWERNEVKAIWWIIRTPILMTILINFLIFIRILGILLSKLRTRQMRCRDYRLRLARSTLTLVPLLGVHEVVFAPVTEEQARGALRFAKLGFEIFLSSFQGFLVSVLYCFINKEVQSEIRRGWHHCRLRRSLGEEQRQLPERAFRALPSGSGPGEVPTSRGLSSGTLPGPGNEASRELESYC
Assay: FACS binding assay
Conditions: read-out: pIC50 Category (converted)
In short: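 CHO-K1 cells expressing human GIPR, washed in PBS/1% FCS, then stained with 1 μg/mL APC-streptavidin for 30 min on ice.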

[1] = competition with 20 nM GIP-057, 4° C. for 1 hour
[2] = competition with 20 nM GIP-057, 4° C., 1 hour

SMILES: CC[C@H](C)[C@@H]1NC(=O)[C@H](CC(C)C)NC(=O)C(C)(C)NC(=O)[C@@H](NC(=O)[C@@H](CC(C)C)NC(=O)[C@H](CCC(=O)O)NC(=O)[C@@H]2CCCN2C(=O)[C@H](Cc2c[nH]c3ccccc23)NC(=O)[C@H](Cc2c[nH]c3ccccc23)NC(=O)[C@H](CC(=O)O)NC(=O)CCc2ccc3ccccc3c2)CSCc2cccc(c2)CSC[C@@H](C(=O)NCCCOCCOCCOCCCNC(=O)CCC(=O)N[C@@H](CCCCNC(=O)CN2CCN(CC(=O)O)CCN(CC(=O)O)CCN(CC(=O)O)CC2)C(N)=O)NC1=O [GIP-281, Nph2p-Asp-Trp-Trp-Pro-Glu-leu-[Cys(3MeBn)-Aib-Leu-Ile-Cys]-Ttds-Lys(DOTA)-NH2] (X28-DWWPE[dL]C[Aib]LIC-X5; linker 7-11 via mXylylene)
- IC50 [1]: 0.1 to 0.794 µM

SMILES: CC[C@H](C)[C@@H]1NC(=O)[C@H](CC(C)C)NC(=O)C2(CCOCC2)NC(=O)[C@@H](NC(=O)[C@@H](CC(C)C)NC(=O)[C@H](Cc2ccccc2)NC(=O)[C@@H]2C[C@@H](O)CN2C(=O)[C@H](Cc2c[nH]c3ccc(Cl)cc23)NC(=O)[C@H](Cc2c[nH]c3ccccc23)NC(=O)[C@H](CC(=O)O)NC(C)=O)CSCc2cccc(n2)CSC[C@@H](C(N)=O)NC1=O [GIP-396, Ac-Asp-Trp-5Clw-Hyp-Phe-leu-[Cys(2Lut)-Thp-Leu-Ile-Cys]-NH2] (Ac-DW[Trp(5-Cl)][Hyp]F[dL]C[Thp]LIC-NH2; linker 7-11 via Pyridine(2,6-diCH2))
- IC50 [1]: 0.01 to 0.0794 µM

SMILES: CC[C@H](C)[C@@H]1NC(=O)[C@H](CC(C)C)NC(=O)C2(CCN(C(=O)CN3CCN(CC(=O)O)CCN(CC(=O)O)CCN(CC(=O)O)CC3)CC2)NC(=O)[C@@H](NC(=O)[C@@H](CC(C)C)NC(=O)[C@H](CCC(=O)O)NC(=O)[C@@H]2C[C@@H](N)CN2C(=O)[C@H](Cc2c[nH]c3ccc(Cl)cc23)NC(=O)[C@H](Cc2c[nH]c3ccccc23)NC(=O)[C@H](CC(=O)O)NC(=O)CCCC(=O)NC[C@H](O)[C@@H](O)[C@H](O)[C@H](O)CO)CSCc2cccc(n2)CSC[C@@H](C(=O)NC2CCN(CC(=O)N[C@H](CCC(=O)NC[C@H](O)[C@@H](O)[C@H](O)[C@H](O)CO)C(N)=O)CC2)NC1=O [GIP-051, AGLU-Glutar-Asp-Trp-5Clw-Tap-Glu-leu-[cys(2Lut)-Apc(DOTA)-Leu-Ile-Cys]-APAc-glu(AGLU)-NH2] ({NH(1-deoxy-D-glucityl)-Glutaryl}-DW[Trp(5-Cl)][Pro(4R-NH2)]E[dL]C[Api](DOTA)LIC[X1][dE](NH(1-deoxy-D-glucityl))-NH2; linker 7-11 via Pyridine(2,6-diCH2))
- IC50 [2]: 0.01 to 0.0794 µM

SMILES: CC[C@H](C)[C@@H]1NC(=O)[C@H](CC(C)C)NC(=O)[C@@H](C)NC(=O)[C@@H](NC(=O)[C@@H](CC(C)C)NC(=O)[C@H](CCC(=O)O)NC(=O)[C@@H]2CCCN2C(=O)[C@H](Cc2c[nH]c3ccccc23)NC(=O)[C@H](Cc2c[nH]c3ccccc23)NC(=O)CCC(=O)O)CSCc2cc(cc(CN3CCN(C(=O)CN4CCN(CC(=O)O)CCN(CC(=O)O)CCN(CC(=O)O)CC4)CC3)c2)CSC[C@@H](C(N)=O)NC1=O [GIP-286, HO-Succinyl-Trp-Trp-Pro-Glu-leu-[Cys(tMeBn(DOTA-PP))-ala-Leu-Ile-Cys]-NH2] (Suc-WWPE[dL]C[dA]LIC-NH2; linker 6-10 via X19)
- IC50 [1]: > 1 µM

SMILES: CC[C@H](C)[C@@H]1NC(=O)[C@H](CC(C)C)NC(=O)C2(CCN(C(=O)[C@H](CCC(=O)NC[C@H](O)[C@@H](O)[C@H](O)[C@H](O)CO)NC(=O)CN3CCN(CC(=O)O)CCN(CC(=O)O)CCN(CC(=O)O)CC3)CC2)NC(=O)[C@@H](NC(=O)[C@@H](CC(C)C)NC(=O)[C@H](CCC(=O)O)NC(=O)[C@@H]2C[C@@H](O)CN2C(=O)[C@H](Cc2c[nH]c3ccc(Cl)cc23)NC(=O)[C@H](Cc2c[nH]c3ccccc23)NC(=O)[C@H](CC(=O)O)NC(=O)CN2CCC(NC(=O)CCCC(=O)NC[C@H](O)[C@@H](O)[C@H](O)[C@H](O)CO)CC2)CSCc2cccc(n2)CSC[C@@H](C(=O)NC2CCN(CC(=O)N[C@H](CCC(=O)NC[C@H](O)[C@@H](O)[C@H](O)[C@H](O)CO)C(N)=O)CC2)NC1=O [GIP-043, AGLU-Glutar-APAc-Asp-Trp-5Clw-Hyp-Glu-leu-[Cys(2Lut)-Apc(DOTA-glu(AGLU))-Leu-Ile-Cys]-APAc-glu(AGLU)-NH2] ({NH(1-deoxy-D-glucityl)-Glutaryl}-[X1]DW[Trp(5-Cl)][Hyp]E[dL]C[Api](X2)LIC[X1][dE](NH(1-deoxy-D-glucityl))-NH2; linker 8-12 via Pyridine(2,6-diCH2))
- IC50 [2]: < 0.01 µM

SMILES: CC[C@H](C)[C@@H]1NC(=O)[C@H](CC(C)C)NC(=O)C(C)(C)NC(=O)[C@@H](NC(=O)[C@@H](CC(C)C)NC(=O)[C@H](CCC(=O)O)NC(=O)[C@@H]2CCCN2C(=O)[C@H](Cc2c[nH]c3ccc(Cl)cc23)NC(=O)[C@H](Cc2c[nH]c3ccccc23)NC(=O)CCC(=O)O)CSCc2cccc(c2)CSC[C@@H](C(N)=O)NC1=O [GIP-198, HO-Succinyl-Trp-5Clw-Pro-Glu-leu-[Cys(3MeBn)-Aib-Leu-Ile-Cys]-NH2] (Suc-W[Trp(5-Cl)]PE[dL]C[Aib]LIC-NH2; linker 6-10 via mXylylene)
- IC50 [2]: < 0.01 µM

SMILES: CC[C@H](C)[C@@H]1NC(=O)[C@H](CC(C)C)NC(=O)C2(CCOCC2)NC(=O)[C@@H](NC(=O)[C@@H](CC(C)C)NC(=O)[C@H](CCC(=O)O)NC(=O)[C@@H]2C[C@@H](O)CN2C(=O)[C@H](Cc2c[nH]c3ccc(Cl)cc23)NC(=O)[C@H](Cc2ccccc2)NC(=O)[C@H](CC(=O)O)NC(C)=O)CSCc2cccc(n2)CSC[C@@H](C(N)=O)NC1=O [GIP-224, Ac-Asp-Phe-5Clw-Hyp-Glu-leu-[Cys(2Lut)-Thp-Leu-Ile-Cys]-NH2] (Ac-DF[Trp(5-Cl)][Hyp]E[dL]C[Thp]LIC-NH2; linker 7-11 via Pyridine(2,6-diCH2))
- IC50 [2]: < 0.01 µM

SMILES: CC[C@H](C)[C@@H]1NC(=O)[C@H](CC(C)C)NC(=O)C(C)(C)NC(=O)[C@@H](NC(=O)[C@@H](CC(C)C)NC(=O)[C@H](CCC(=O)O)NC(=O)[C@@H]2CCCN2C(=O)[C@H](Cc2c[nH]c3cc(Cl)ccc23)NC(=O)[C@H](Cc2c[nH]c3ccccc23)NC(=O)[C@H](CC(=O)O)NC(C)=O)CSCc2cccc(c2)CSC[C@@H](C(=O)NCCCOCCOCCOCCCNC(=O)CCC(=O)N[C@@H](CCCCNC(=O)CN2CCN(CC(=O)O)CCN(CC(=O)O)CCN(CC(=O)O)CC2)C(N)=O)NC1=O [GIP-282, Ac-Asp-Trp-6Clw-Pro-Glu-leu-[Cys(3MeBn)-Aib-Leu-Ile-Cys]-Ttds-Lys(DOTA)-NH2] (Ac-DW[Trp(6-Cl)]PE[dL]C[Aib]LIC-X5; linker 7-11 via mXylylene)
- IC50 [1]: 0.1 to 0.794 µM

SMILES: CC[C@H](C)[C@@H]1NC(=O)[C@H](CC(C)C)NC(=O)[C@H](C)NC(=O)[C@@H](NC(=O)[C@H](C)NC(=O)[C@H](CCC(=O)O)NC(=O)[C@@H]2CCCN2C(=O)[C@H](Cc2c[nH]c3ccccc23)NC(=O)[C@H](Cc2c[nH]c3ccccc23)NC(=O)[C@H](CC(=O)O)NC(=O)[C@H](Cc2ccc(O)cc2)NC(=O)[C@@H](N)CCSC)CSCc2cccc(c2)CSC[C@@H](C(N)=O)NC1=O [GIP-336] (H-MYDWWPEACALIC-NH2; linker 9-13 via mXylylene)
- IC50 [1]: > 1 µM

SMILES: CC[C@H](C)[C@@H]1NC(=O)[C@H](CC(C)C)NC(=O)C2(CCOCC2)NC(=O)[C@@H](NC(=O)[C@@H](CC(C)C)NC(=O)[C@H](CCC(=O)O)NC(=O)[C@@H]2C[C@@H](O)CN2C(=O)[C@H](Cc2ccccc2)NC(=O)[C@H](Cc2c[nH]c3ccccc23)NC(=O)[C@H](CC(=O)O)NC(C)=O)CSCc2cccc(n2)CSC[C@@H](C(N)=O)NC1=O [GIP-352, Ac-Asp-Trp-Phe-Hyp-Glu-leu-[Cys(2Lut)-Thp-Leu-Ile-Cys]-NH2] (Ac-DWF[Hyp]E[dL]C[Thp]LIC-NH2; linker 7-11 via Pyridine(2,6-diCH2))
- IC50 [1]: > 1 µM
